# Source: patent US8242118B2, “Arylsulfonamide derivatives for use as CCR3 antagonists in the treatment of inflammatory and immunological disorders” (Axikin Pharmaceuticals Inc., priority 2001, dated 2012)
# Experiments:
# [1] = target: T1, Human CCR3 (Homo sapiens, UniProt P51677); assay: Calcium mobilization assay, eotaxin-stimulated; assay type: cell-based; conditions: human CCR3-transformed K562 cells, 10 nM eotaxin; compounds of about 40 to 90% purity; read-out: Activity grade Ca2+ (IC50 class)
# T1 construct: The cloned CCR3 cDNA was constructed with pcDNA3 vector and transfected into a IC562 cell line; expressed in transfected cells
# T1 sequence (P51677 1-355): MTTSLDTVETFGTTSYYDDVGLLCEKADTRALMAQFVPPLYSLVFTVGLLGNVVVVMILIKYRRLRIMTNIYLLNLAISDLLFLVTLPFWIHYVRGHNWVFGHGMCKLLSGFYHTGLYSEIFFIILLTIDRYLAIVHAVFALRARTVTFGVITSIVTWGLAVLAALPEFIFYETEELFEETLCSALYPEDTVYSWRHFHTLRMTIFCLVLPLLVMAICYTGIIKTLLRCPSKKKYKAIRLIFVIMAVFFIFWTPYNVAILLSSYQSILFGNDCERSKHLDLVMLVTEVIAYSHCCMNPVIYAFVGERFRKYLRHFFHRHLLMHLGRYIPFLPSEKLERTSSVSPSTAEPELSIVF
# Description: • Human CCR3-transformed K562 cells were used. The cloned CCR3 cDNA was constructed with pcDNA3 vector and transfected into a IC562 cell line. The human CCR3-transformed K562 cells were maintained in RPMI-1640 (Cat.#22400-089, Life Technologies) supplemented with 10% FCS (Cat.#A-1115-L, Hyclone), 55 μM 2-mercaptoethanol (Cat.#21985-023, Life Technologies), 1 mM sodium pyruvate (Cat.#11360-070, Life Technologies), 100 units/ml of penicillin G and 100 μg/ml of streptomycin (Cat.#15140-122, Life Technologies), and 0.4 mg/ml of Geneticin (Cat.#10131-035, Life Technologies)(hereinafter called “culture medium”). Before the receptor binding assay, cells were pretreated with 5 mM sodium butyrate (Cat.#193-01522, Wako)-containing the culture medium (2×10^5 cells/ml) for 20-24 hours to increase the expression of CCR3. (2) Receptor Binding Assay (RBA) • Butyrate-pretreated cells, suspended in binding buffer (25 mM HEPES pH 7.6, 1 mM CaCl2, 5 mM MgCl2, 0.5% BSA, 0.1% NaN3) at a cell density of 2×10^6 cells/ml, were added into 60 μl/well in the 96-well round bottom polypropylene plate (Cat.#3365, Costar). Compounds, diluted with the binding buffer (4-times higher concentration of the final concentration), were added into 30 μl/well in the polypropylene plate. [^125I]-labeled human eotaxin (Cat.#IM290, Amersham Pharmacia Biotech), diluted with the binding buffer at the concentration of 0.4 nM (final concentration; 0.1 nM), was added into 30 μl/well in the polypropylene plate. Total 120 μl/well of binding reaction mixture (60 μl/well of cell suspension, 30 μl/well of compound solution, and 30 μl/well of [^125I]-labeled eotaxin) were incubated in the polypropylene plate for 1 hour at room temperature after the incubation, 100 μl/well of the reaction mixture was transferred to a filtration plate (Cat.#MAFB-N0B, Millipore), and washed with the washing buffer (25 mM HEPES pH 7.6, 1 mM CaCl2, 5 mM MgCl2, 0.5% BSA, 0.1% NaN3, 0.5 M NaCl) twice. The 96-well filtration plate was pretreated with 100 μl/well of 0.5% polyethylenimine (Cat.#P-3143, Sigma) for 2-4 hours at room temperature and washed with the washing buffer twice before use. The non-specific binding was determined by parallel incubation in the presence of 500 nM of non-labeled eotaxin (Cat.#23209, Genzyme Techne). The radioactivities remained on the filter were measured by liquid scintillation counter (TopCount™, Packard) after an addition of 45 μl/well of scintillant (Microscint20, Cat.#6013621, Packard). The inhibition percent at each concentration of compound was calculated, and IC50 values were determined from the inhibition curve. [Determination of IC50 Values of Compounds in Calcium Mobilization Assay] (IC50 Ca2+) (1) Cell • Human CCR3-transformed K562 cells were used. The human CCR3-transformed K562 cells were maintained in RPMI-1640 supplemented with 10% FCS, 55 μM 2-mercaptoethanol (Cat.#21985-023, Life Technologies), 1 mM sodium pyruvate, 100 units/ml of penicillin G and 100 μg/ml of streptomycin and 0.4 mg/ml of Geneticin. Before the calcium mobilization assay, cells were pretreated with 5 mM sodium butyrate-containing the culture medium (2×10^5 cells/ml) for 20-24 hours to increase the expression of CCR3. (2) Calcium Mobilization Assay • Butyrate-pretreated cells were loaded with Fluo-3AM (Cat.#F-1242, Molecular Probes) in loading buffer (Hanks' solution Cat.#05906 Nissui, 20 mM HEPES pH 7.6, 0.1% BSA, 1 mM probenecid Cat.#P-8761 Sigma, 1 μM Fluo-3AM, 0.01% pluronic F-127 Cat.#P-6866 Molecular Probes) at a cell density of 1×10^7 cells/ml. Then, cells were washed with calcium assay buffer (Hanks' solution Cat.#05906 Nissui, 20 mM HEPES pH 7.6, 0.1% BSA, 1 mM Probenecid Cat.#P-8761 Sigma). The cell suspension (3.3×10^6 cells/ml) was added into 60 μl/well in the 96-well clear bottom black plate (Cat.#3904, Costar). Compounds, diluted (5-times concentration of the final concentration) with the calcium assay buffer, were added into 20 μl/well in the plate 10 minutes before assay. […]
structure (smiles),measurement,setting,value
COc1ccc(S(=O)(=O)N2CCNCC2)c(Oc2cc(C)cc(C)c2)c1.Cl [Example 1-49],melting point,,125 °C
same,IC50,[1],< 1 µM
COc1cc(Oc2cc(Cl)cc(Cl)c2)c(S(=O)(=O)N2CCNCC2)cc1[N+](=O)[O-].Cl [Example 1-50],melting point,,181 °C
same,IC50,[1],< 1 µM
Cc1cc(C)cc(Oc2cc(C)ccc2S(=O)(=O)N2CCNCC2)c1.Cl [Example 1-52],melting point,,136 °C
same,IC50,[1],< 1 µM
Cl.Cl.O=[N+]([O-])c1ccc(Oc2cncc(Cl)c2)c(S(=O)(=O)N2CCNCC2)c1 [Example 1-55],melting point,,231 °C
same,IC50,[1],< 1 µM
Cc1cc(C)cc(Oc2cccc(F)c2S(=O)(=O)N2CCNCC2)c1.Cl [Example 1-58],melting point,,204 °C
same,IC50,[1],< 1 µM
Cl.O=S(=O)(c1c(F)cccc1Oc1cc(Cl)cc(Cl)c1)N1CCNCC1 [Example 1-59],melting point,,306 °C
same,IC50,[1],< 1 µM
Cl.Nc1cccc(Oc2ccc([N+](=O)[O-])cc2S(=O)(=O)N2CCNCC2)c1 [Example 1-67],melting point,,248 °C
same,IC50,[1],< 1 µM
Cl.O=[N+]([O-])c1ccc(Oc2cccc(-c3ccccc3)c2)c(S(=O)(=O)N2CCNCC2)c1 [Example 1-68],melting point,,99 °C
same,IC50,[1],< 1 µM
Cc1cc(Oc2ccc([N+](=O)[O-])cc2S(=O)(=O)N2CCNCC2)cc(C)c1C.Cl [Example 1-69],melting point,,248 °C
same,IC50,[1],< 1 µM
Cc1ccc(Oc2ccc([N+](=O)[O-])cc2S(=O)(=O)N2CCNCC2)cn1.Cl [Example 1-70],melting point,,237 °C
same,IC50,[1],< 1 µM
Cc1cc(O)cc(Oc2ccc([N+](=O)[O-])cc2S(=O)(=O)N2CCNCC2)c1.Cl [Example 1-71],melting point,,182 °C
same,IC50,[1],< 1 µM
Cl.O=[N+]([O-])c1ccc(Oc2ccc3c(c2)CCCC3)c(S(=O)(=O)N2CCNCC2)c1 [Example 1-72],melting point,,168 °C
same,IC50,[1],< 1 µM
Cl.O=[N+]([O-])c1ccc(Oc2c(F)c(F)c(F)c(F)c2F)c(S(=O)(=O)N2CCNCC2)c1 [Example 1-73],melting point,,297 °C
same,IC50,[1],< 1 µM
Cc1ccc([N+](=O)[O-])c(Oc2ccc([N+](=O)[O-])cc2S(=O)(=O)N2CCNCC2)c1.Cl [Example 1-75],melting point,,215 °C
same,IC50,[1],< 1 µM
O=[N+]([O-])c1ccc(Oc2cc(Cl)cc(Cl)c2)c(S(=O)(=O)NC2CCNCC2)c1 [Example 1-78],melting point,,> 300 °C
same,IC50,[1],< 1 µM
Cc1cc(C)cc(Oc2ccc([N+](=O)[O-])cc2S(=O)(=O)N2C(C)CNCC2C)c1.Cl (centres unmarked) [Example 1-94],melting point,,> 300 °C
same,IC50,[1],< 1 µM
NCC1CCN(S(=O)(=O)c2cc([N+](=O)[O-])ccc2Oc2cc(Cl)cc(Cl)c2)CC1 [Example 1-97],melting point,,148 to 151 °C
same,IC50,[1],< 1 µM
O=C(O)CCN1CCN(S(=O)(=O)c2cc([N+](=O)[O-])ccc2Oc2cc(Cl)cc(Cl)c2)CC1 [Example 1-98],melting point,,200 to 201 °C
same,IC50,[1],< 1 µM
Cl.N[C@@H]1CCN(S(=O)(=O)c2cc([N+](=O)[O-])ccc2Oc2cc(Cl)cc(Cl)c2)C1 [Example 1-99],melting point,,247 to 250 °C
same,IC50,[1],< 1 µM
O=[N+]([O-])c1ccc(Sc2cc(Cl)cc(Cl)c2)c(S(=O)(=O)N2CCN(CC3CCCO3)CC2)c1 (centres unmarked) [Example 2-2],melting point,,147 to 148 °C
same,IC50,[1],< 1 µM
NCCNS(=O)(=O)c1cc([N+](=O)[O-])ccc1Sc1cc(Cl)cc(Cl)c1 [Example 2-5],melting point,,189 °C
same,IC50,[1],< 1 µM
CCOC(=O)CCN1CCN(S(=O)(=O)c2cc([N+](=O)[O-])ccc2Sc2cc(Cl)cc(Cl)c2)CC1 [Example 2-6],melting point,,156 to 158 °C
same,IC50,[1],< 1 µM
NCC1CCN(S(=O)(=O)c2cc([N+](=O)[O-])ccc2Sc2cc(Cl)cc(Cl)c2)CC1 [Example 2-7],melting point,,147 to 149 °C
same,IC50,[1],< 1 µM
Cl.O=[N+]([O-])c1ccc(Sc2cc(Cl)cc(Cl)c2)c(S(=O)(=O)NCC2CCNCC2)c1 [Example 2-8],melting point,,205 to 207 °C
same,IC50,[1],< 1 µM
COCCCN1CCN(S(=O)(=O)c2cc([N+](=O)[O-])ccc2Sc2cc(Cl)cc(Cl)c2)CC1 [Example 2-9],melting point,,131 to 133 °C
same,IC50,[1],< 1 µM
O=C(O)CCN1CCN(S(=O)(=O)c2cc([N+](=O)[O-])ccc2Sc2cc(Cl)cc(Cl)c2)CC1 [Example 2-10],melting point,,209 to 211 °C
same,IC50,[1],< 1 µM
Cc1cc(C)c(Sc2ccc([N+](=O)[O-])cc2S(=O)(=O)N2CCNCC2)c(C)c1.Cl [Example 2-15],melting point,,274 °C
same,IC50,[1],1 to 10 µM
Cc1cccc(Sc2ccc([N+](=O)[O-])cc2S(=O)(=O)N2CCNCC2)c1.Cl [Example 2-16],melting point,,229 to 231 °C
same,IC50,[1],< 1 µM
Cl.O=[N+]([O-])c1ccc(Sc2cccc(Cl)c2)c(S(=O)(=O)N2CCNCC2)c1 [Example 2-17],melting point,,235 to 237 °C
same,IC50,[1],< 1 µM
Cl.O=[N+]([O-])c1ccc(Sc2cc(Cl)cc(Cl)c2)c(S(=O)(=O)N2CCNCC2)c1 [Example 2-18],melting point,,262 to 264 °C
same,IC50,[1],< 1 µM
Cl.O=[N+]([O-])c1ccc(Sc2cccc(F)c2)c(S(=O)(=O)N2CCNCC2)c1 [Example 2-19],melting point,,236 to 238 °C
same,IC50,[1],< 1 µM
Cl.O=[N+]([O-])c1ccc(Sc2cc(C(F)(F)F)cc(C(F)(F)F)c2)c(S(=O)(=O)N2CCNCC2)c1 [Example 2-20],melting point,,230 to 231 °C
same,IC50,[1],< 1 µM
Cl.O=[N+]([O-])c1ccc(Sc2ccc3ccccc3c2)c(S(=O)(=O)N2CCNCC2)c1 [Example 2-21],melting point,,273 °C
same,IC50,[1],1 to 10 µM
Cc1cc(C)cc(Sc2ccc([N+](=O)[O-])cc2S(=O)(=O)N2CCN(CC3CCCO3)CC2)c1 (centres unmarked) [Example 4-28],melting point,,143 to 144 °C
same,IC50,[1],< 1 µM
CCN(CC)CCN1CCN(S(=O)(=O)c2cc([N+](=O)[O-])ccc2Oc2cc(Cl)cc(Cl)c2)CC1 [Example 4-30],melting point,,98 to 99 °C
same,IC50,[1],< 1 µM
CN(C)CCN1CCN(S(=O)(=O)c2cc([N+](=O)[O-])ccc2Oc2cc(Cl)cc(Cl)c2)CC1 [Example 4-31],melting point,,138 to 140 °C
same,IC50,[1],< 1 µM
CN1CCC(N2CCN(S(=O)(=O)c3cc([N+](=O)[O-])ccc3Oc3cc(Cl)cc(Cl)c3)CC2)CC1 [Example 4-32],melting point,,167 to 169 °C
same,IC50,[1],< 1 µM
